Test [1] has as its target T1, soybean lipoxygenase (LOX, type I-B) immobilized in crosslinked phyllosilicate (TMOS-crosslinked montmorillonite) (Glycine max, UniProt P08170).
T1 construct: purchased Sigma, St. Louis, Mo
T1 sequence (P08170 1-839): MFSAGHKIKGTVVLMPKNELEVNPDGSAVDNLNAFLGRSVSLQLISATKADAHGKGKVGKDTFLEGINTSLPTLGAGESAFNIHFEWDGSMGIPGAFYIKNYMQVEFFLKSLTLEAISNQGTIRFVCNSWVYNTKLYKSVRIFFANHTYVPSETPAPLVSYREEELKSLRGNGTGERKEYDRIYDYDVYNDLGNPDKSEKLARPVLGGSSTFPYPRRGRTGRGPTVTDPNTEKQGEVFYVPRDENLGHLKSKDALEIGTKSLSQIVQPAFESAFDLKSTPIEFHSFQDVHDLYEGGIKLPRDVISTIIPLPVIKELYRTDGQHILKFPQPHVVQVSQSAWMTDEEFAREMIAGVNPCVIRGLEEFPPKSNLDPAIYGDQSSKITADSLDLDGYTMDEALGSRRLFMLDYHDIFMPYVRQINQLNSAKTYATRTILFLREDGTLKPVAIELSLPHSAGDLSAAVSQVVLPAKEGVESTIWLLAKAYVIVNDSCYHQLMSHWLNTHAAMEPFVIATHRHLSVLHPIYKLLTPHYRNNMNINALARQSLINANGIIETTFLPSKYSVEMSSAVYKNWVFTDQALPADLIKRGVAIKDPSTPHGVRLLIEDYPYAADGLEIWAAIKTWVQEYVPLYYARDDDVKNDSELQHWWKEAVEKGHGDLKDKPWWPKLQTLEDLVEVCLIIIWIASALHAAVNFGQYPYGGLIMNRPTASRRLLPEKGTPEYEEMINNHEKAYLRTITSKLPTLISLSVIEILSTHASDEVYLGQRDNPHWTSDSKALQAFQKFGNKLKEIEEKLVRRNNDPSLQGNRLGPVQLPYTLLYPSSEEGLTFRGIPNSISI
In words: LOX oxidation of linoleic acid, hydroperoxide (HPOD) formation, immobilized enzyme. Type of test: biochemical. As to conditions: substrate linoleic acid 0-20 μmoles; Lineweaver-Burk plot; LOX immobilized in crosslinked phyllosilicates. How it is done:
Measurement of Enzymatic Activity. The activity of the immobilized lipoxygenase was assayed by measurement of hydroperoxide formation (Parra-Diaz, D. et al. [1993] supra). An aliquot of the substrate (5 μmoles of linoleic acid) dissolved in methylene chloride was placed in a 10 mL flask and evaporated to dryness under a stream of nitrogen. The reaction medium containing 0.2 mL of 100 mM deoxychlorate (DOC) and 1.8 mL of sodium borate buffer (0.2 M, pH 9.0) was added to the substrate, and the mixture was then shaken at 250 rpm for 0.5 h at 15° C. The reaction was initiated by adding a suitable amount (approximately 0.15 mg) free or immobilized LOX. Oxidation was conducted at 15° C. with agitation at 250 rpm for two hours. The reaction was quenched by adding 400 μL of 1 M citric add. Linoleic acid hydroperoxide was isolated by extracting the reaction mixture twice with 2 mL chloroform:methanol (2/1, v/v). After removing the solvent under a stream of nitrogen, the hydroperoxide was redissolved in 3 mL ethanol. The amount of hydroperoxide was determined spectrophotometrically by the xylenol orange method (Jiang, T.-Y. et al. [1991] Lipids 26:853-856). […] All results were corrected by subtracting the reading from controls without enzymes. […]
Effect of substrate concentration. The rate of hydroperoxide (HPOD) formation was measured at linoleic acid concentrations ranging from 0-20 μmoles. […]

For test [2], the target named is T2, free soybean lipoxygenase (LOX, type I-B) (Glycine max, UniProt P08170).
T2 sequence (P08170 1-839): T1 sequence (P08170 1-839)
In words: LOX oxidation of linoleic acid, hydroperoxide (HPOD) formation, free enzyme. Type of test: biochemical. Conditions: substrate linoleic acid; free LOX under similar conditions.
Experimental: Measurement of Enzymatic Activity. The activity of the immobilized lipoxygenase was assayed by measurement of hydroperoxide formation (Parra-Diaz, D. et al. [1993] supra). An aliquot of the substrate (5 μmoles of linoleic acid) dissolved in methylene chloride was placed in a 10 mL flask and evaporated to dryness under a stream of nitrogen. The reaction medium containing 0.2 mL of 100 mM deoxychlorate (DOC) and 1.8 mL of sodium borate buffer (0.2 M, pH 9.0) was added to the substrate, and the mixture was then shaken at 250 rpm for 0.5 h at 15° C. The reaction was initiated by adding a suitable amount (approximately 0.15 mg) free or immobilized LOX. Oxidation was conducted at 15° C. with agitation at 250 rpm for two hours. The reaction was quenched by adding 400 μL of 1 M citric add. Linoleic acid hydroperoxide was isolated by extracting the reaction mixture twice with 2 mL chloroform:methanol (2/1, v/v). After removing the solvent under a stream of nitrogen, the hydroperoxide was redissolved in 3 mL ethanol. The amount of hydroperoxide was determined spectrophotometrically by the xylenol orange method (Jiang, T.-Y. et al. [1991] Lipids 26:853-856). Standards were prepared by diluting a commercial cumene peroxide. […]

The record followed here is US6180378A, “Immobilization of bioactive protein in phyllosilicates” (The United States of America as represented by the …, priority 1999, dated 2001).

On to `CCCCC/C=C\C/C=C\CCCCCCCC(=O)O` [linoleic acid], for which the Michaelis-Menten constant (Km) in test [1] is 1700 µM; in test [2] it was 2500 µM. The Vmax in test [1] was determined as 0.023 µmol/min; in test [2], 0.056 mol/min.
